One may read the Kd as the concentration at which binding is half-saturated. A word on the koff: it is a measure of how fast the partners let go of each other. The term clearance denotes a measure of how efficiently the substance is removed, as volume per time. A lower clearance goes with inefficient removal.

The source of these data is US20090170869A1, “PIPERAZINE DERIVATIVE HAVING AFFINITY FOR THE HISTAMINE H3 RECEPTOR” (priority 2007, published 2009).

Where a name gives a salt, the structure may show the parent alone.

One series concerns rodent models. As to conditions: five choice task, object recognition, elevated plus maze, acquisition of novel task, passive avoidance; literature reports; cited from earlier work.
A short description of series [1]: Preliminary HCl-salt-formation and crystallisation experiments (crystal form stability). Format: physicochemical. The settings on record: hydrochloride salt crystal forms; without being bound by theory. An excerpt: Crystalline Form 1 (or a predominance of crystalline Form 1) is often formed initially depending on the conditions, but, depending on the conditions (such as the type of solvent and the solubility of crystalline Form 1 in it, and/or the temperature and/or temperature time course, and/or the contact time of the crystalline Form 1 with the solvent), the crystalline Form 1 can then often convert to crystalline Form 2 to a greater or lesser extent when in contact with a suitable solvent i.e. a solvent suitable for converting crystalline Form 1 to crystalline Form 2.

The target of another series is H3 receptor (Sus scrofa, UniProt A0A287B9V8). Briefly: Pig-PET study with [11C]GSK189254: pig brain H3 receptor occupancy over time and kon-koff limited model. As to conditions: 50 micrograms/kg i.v.; for Measured H3 receptor occupancy @ 10 min: 10 minutes post administration; for Measured H3 receptor occupancy @ 2.5 h: 2.5 hours post administration; for Measured H3 receptor occupancy @ 6 h: 6 hours post administration; for Kd: Kd (koff/kon); for koff: iv; for koff / kon: Salt B.
H3 receptor, sequence (A0A287B9V8 1-448): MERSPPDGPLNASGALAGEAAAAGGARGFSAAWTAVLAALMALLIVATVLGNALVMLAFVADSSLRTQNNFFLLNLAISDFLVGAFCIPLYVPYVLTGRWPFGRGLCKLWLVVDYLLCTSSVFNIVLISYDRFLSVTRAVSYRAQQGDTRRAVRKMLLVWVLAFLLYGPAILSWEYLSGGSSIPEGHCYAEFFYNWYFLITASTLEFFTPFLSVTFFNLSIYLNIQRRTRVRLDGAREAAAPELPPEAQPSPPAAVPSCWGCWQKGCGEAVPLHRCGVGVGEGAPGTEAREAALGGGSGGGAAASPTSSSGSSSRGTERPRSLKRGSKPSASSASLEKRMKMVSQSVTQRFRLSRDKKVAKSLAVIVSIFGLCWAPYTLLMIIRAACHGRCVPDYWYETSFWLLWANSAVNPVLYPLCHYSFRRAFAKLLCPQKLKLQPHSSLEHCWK

Series [2] is described as follows: Plasma clearance in the pig-PET study. The settings on record: Yorkshire-Landrace, iv, 50 ug/kg, 50 micrograms/kg i.v. Format: in vivo.
Series [3] concerns the target T1, brain histamine H3 receptor (Rattus norvegicus, UniProt Q9QYN8).
T1 construct: from tissue; host or cells: cerebral cortex homogenate of adult male Lister hooded rats
Put plainly: Rat ex vivo binding studies - rat brain histamine H3 receptor occupancy ([3H]-R-α-methylhistamine). Format: in vivo. The settings on record: for inhibition of [3H]-R-α-methylhistamine specific binding to the H3 receptor (surrogate for rat brain H3 receptor occupancy): 10 mg/kg oral; for specific binding of [3H]-R-α-methylhistamine to the H3 receptor: rats n=3, 10 mg/kg oral, mean ± SEM. As for the experimental part:
Ex vivo binding studies were carried out to determine brain histamine H3 receptor occupancy in rats at certain time points after oral administration of a test compound.
Adult male rats (Lister hooded 200-250 g, Charles River, UK) received vehicle (1% w/v aqueous methylcellulose) (control) or the test compound (10 mg/kg) by oral gavage (n=3 per group) and were sacrificed 1 or 4 hours following oral dosing. The 1 hour and 4 hour studies were not necessarily done on the same day. Terminal blood samples were collected and brains rapidly removed. Cerebral cortex tissue was dissected from half of each brain for ex vivo binding; the other half brain can be used for pharmacokinetic analysis of brain concentrations of each compound. All dissected tissue samples were snap-frozen in liquid nitrogen, and stored at −80° C. until use. The tissues were rapidly thawed and homogenised in approximately 30 volumes of ice cold assay reaction buffer. The assay reaction buffer contained 50 mM Tris-HCl (made up using Trizma pre-set crystals pH 7.7 @25° C., Sigma cat. No. T8068-250G) and 5 mM EDTA, with a final buffer pH of 7.2 to 7.8, usually about 7.4. The crude homogenate (600-800 μg/well) was then used to measure H3 receptor binding using [^3H]-R-α-methylhistamine as radioligand. Assays measuring total binding of [^3H]-R-α-methylhistamine consisted of 50 μl assay reaction buffer, 400 μl of homogenate (corresponding to 600-800 μg/well) and 50 μl of 2 nM R(−)α-Methyl[imidazole-2,5(n)-3H]histamine dihydrochloride ([^3H]-R-α-methylhistamine; specific activity, 24 Ci mmol^−1, Amersham Biosciences, catalogue no. TRK1017). Incubations with [^3H]-R-α-methylhistamine were for 45 min at 30° C. Non-specific binding of [^3H]-R-α-methylhistamine was determined in parallel using the same assay except that 50 μl of 10 μM imetit (an H3 receptor agonist, e.g. available from Tocris) was used instead of the 50 μl of assay reaction buffer. The experiments were terminated by rapid filtration through Whatman GF/B filters (pre-soaked in 0.3% v/v polyethyleneimine (PEI)), and then the filters were washed through with 4×5 ml of ice cold harvesting buffer. The harvesting buffer contained 50 mM Tris-HCl (from Trizma pre-set crystals pH 7.7 @ 25° C.) and 5 mM MgCl2, with a final buffer pH of 7.2 to 7.8, usually about 7.4. Filters were dried and added to vials each containing 4 ml Ultima Gold MV scintillation fluid (Hewlett Packard) and radioactivity determined by liquid scintillation spectrometry using a Packard Tri-Carb 2500TR liquid scintillation counter.
Specific binding of [^3H]-R-α-methylhistamine to the H3 receptor was determined by the subtraction of the value obtained for non-specific binding from the value obtained for total binding.
Protein concentrations were determined using the Bradford assay method (Bio-Rad
Protein Assay Dye Reagent Concentrate, catalogue no. 500-0006; from Bio-Rad Laboratories GmbH, Heidemannstrasse 164, 80939 Muenchen, Germany; or from Bio-Rad, York, UK) with bovine serum albumin as a standard. Specific radioactivity in the samples was corrected for protein (i.e. per microgram of protein).
The specific binding of [^3H]-R-α-methylhistamine to the H3 receptor is expressed as a mean (n=3 rats)±SEM (standard error of the mean), as a percentage of vehicle-treated control animals. Data is also expressed as inhibition of [^3H]-R-α-methylhistamine specific binding to the H3 receptor, as a surrogate measure for H3 receptor occupancy by the test compound, calculated as 100% minus the % mean specific binding of [^3H]-R-α-methylhistamine to the H3 receptor.

A further series addresses T2, histamine H3 receptor (Rattus norvegicus, UniProt Q9QYN8).
T2 construct: host or cells: rat cortex
As to conditions: following oral administration to the rat; Medhurst et al. 2007; cited from earlier work.

The test system of another series is rats. The settings on record: at certain oral doses; passive avoidance, water maze, object recognition, attentional set shift; Medhurst et al. 2007; cited from earlier work.
Setting [4] is: mean ± standard deviation, n=3 pigs.
Setting [5] is: average model (from average plasma data and average occupancy).

T1 sequence (Q9QYN8 whole entry): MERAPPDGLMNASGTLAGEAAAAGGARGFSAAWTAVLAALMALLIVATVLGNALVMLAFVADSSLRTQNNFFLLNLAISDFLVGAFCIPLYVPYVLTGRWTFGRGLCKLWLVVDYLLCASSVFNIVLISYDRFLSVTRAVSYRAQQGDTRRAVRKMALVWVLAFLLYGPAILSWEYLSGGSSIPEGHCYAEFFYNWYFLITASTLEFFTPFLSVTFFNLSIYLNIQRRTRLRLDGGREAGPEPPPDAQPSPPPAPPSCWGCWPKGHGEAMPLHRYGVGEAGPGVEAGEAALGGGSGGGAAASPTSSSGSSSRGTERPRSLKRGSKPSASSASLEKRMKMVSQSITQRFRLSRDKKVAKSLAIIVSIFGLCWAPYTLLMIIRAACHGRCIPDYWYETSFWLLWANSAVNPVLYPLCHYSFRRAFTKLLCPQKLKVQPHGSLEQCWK
T2 sequence (Q9QYN8 whole entry): as above

In the case of `CC(C)(C)CCC#C[C@@H]1C[C@H]1c1c[nH]cn1` [GT-2331], the “cognitive effect in rodent models” value in the series with rodent models is “cognitive enhancing properties”.

In the case of `NC(=NCc1ccc(Cl)cc1)SCCCc1cnc[nH]1` [clobenpropit], the “cognitive effect in rodent models” value in the series on rodent models is reported as “cognitive enhancing properties”.

Turning to `CC(C)N1CCN(C(=O)c2ccc(OC3CCOCC3)cc2)CC1` [Example 3], in series [1], the “thermodynamic stability relative to crystalline Form 1” value is recorded as “more thermodynamically stable than crystalline Form 1”.

As for `CC(C)N1CCCN(C(=O)c2ccc(OC3CCOCC3)cc2)CC1` [Salt B, reference compound], the “Measured H3 receptor occupancy @ 10 min” value at H3 receptor (setting [4]) was 63% ± 10%; at H3 receptor (pig 1), 51%; at H3 receptor (pig 2), 69%; at H3 receptor (pig 3), 68%. For the same compound, the “Measured H3 receptor occupancy @ 2.5 h” value was 37% ± 16% at H3 receptor (setting [4]), 19% on H3 receptor (pig 1), 49% at H3 receptor (pig 2) and 43% at H3 receptor (pig 3). The “Measured H3 receptor occupancy @ 6 h” value is 33% ± 4% at H3 receptor (setting [4]), 30% on H3 receptor (pig 1), 32% at H3 receptor (pig 2) and 38% at H3 receptor (pig 3). In addition, the dissociation constant Kd is 5.2 nM at H3 receptor (setting [5]); 4.76 nM on H3 receptor (mean of pigs 1-3); 5.6 nM at H3 receptor (pig 1, in vivo PK/RO model); 5.05 nM on H3 receptor (pig 2, in vivo PK/RO model); 3.61 nM on H3 receptor (pig 3, in vivo PK/RO model). The koff is 5.5e-05 s⁻¹ on H3 receptor (PIG1, pig, pig 1, estimated model parameter); 7.5e-05 s⁻¹ on H3 receptor (pig, average model (from average plasma data and average occupancy)); 6.33e-05 s⁻¹ at H3 receptor (pig, mean of pigs 1-3); 7e-05 s⁻¹ on H3 receptor (pig, pig 2, estimated model parameter); 6.5e-05 s⁻¹ on H3 receptor (pig, pig 3, estimated model parameter). The kon was 0.0025 min⁻¹ at H3 receptor (setting [5]); 0.0024 min⁻¹ at H3 receptor (mean of pigs 1-3); 0.0017 min⁻¹ on H3 receptor (pig 1, estimated model parameter); 0.0024 min⁻¹ on H3 receptor (pig 2, estimated model parameter); 0.0031 min⁻¹ at H3 receptor (pig 3, estimated model parameter). The clearance in series [2] (average model (from average plasma data)) was 48.3 mL/min; in series [2] (mean of pigs 1-3) it was 46.7 mL/min; in series [2] (pig 1) it was 60 mL/min; in series [2] (pig 2) it was 30 mL/min; in series [2] (pig 3) it was 46.7 mL/min. The “inhibition of [3H]-R-α-methylhistamine specific binding to the H3 receptor (surrogate for rat brain H3 receptor occupancy)” value in series [3] (1 hour after dosing) is “about 60%”; in series [3] (4 hours after dosing) it was “about 12%”. In addition, the “specific binding of [3H]-R-α-methylhistamine to the H3 receptor” value stood at 40%+4% in series [3] (sacrificed 1 hour after dosing) and 88%+6% in series [3] (sacrificed 4 hours after dosing).

As to `CNC(=O)c1ccc(Oc2ccc3c(c2)CCN(C2CCC2)CC3)nc1` [GSK189254], at histamine H3 receptor, the “[3H]R-α-methylhistamine ex vivo binding in the rat cortex” value is recorded as “inhibited”. Besides, the “performance of rats in cognition paradigms” value in the series on rats is “improved performance”.

As to `S=C(NC1CCCCC1)N1CCC(c2cnc[nH]2)CC1` [thioperamide], the “cognitive effect in rodent models” value in the series with rodent models was “cognitive enhancing properties”.

As to `O=C(c1ccc(OCCCc2cnc[nH]2)cc1)C1CC1` [ciproxifan], the “cognitive effect in rodent models” value in the series with rodent models is recorded as “cognitive enhancing properties”.
